This note sets out measurements from PMC9814901, “One-pot synthesis of cyclic-aminotropiminium carboxylate derivatives with DNA binding and anticancer properties” (Communications Chemistry, 2022).

In data set [1] the test system is HeLa cells. Description: cells. Also on record: MTS cell viability assay, absorbance at 490 nm. The conditions noted are these: Homo sapiens, 18 h; read-out: IC50 concentration in (µM), HeLa. As to the method: MTS assay (CellTiter 96® AQueous One Solution Cell Proliferation Assay (Promega, USA) was used to determine the cell viability. HeLa and HEK293 cells (20,000 cells in each well) were plated in 96 well plate and treated with 6e, 6j, and 6n varying concentrations of the compounds ranging from 10 nM to 50 μM for 18 h. The assay was carried out according to the manufacturer’s instructions. Finally, the plate was read in Varioskan™ LUX multimode microplate reader (Thermo Fisher Scientific) at 490 nm. We investigated the effect of nine cATC derivatives (6b/6d/6e/6f/6i/6j/6k/6l/6n) on cell viability in cancer cell-line HeLa and transformed normal cell-line HEK293. We treated cells with the varying concentrations of the compounds ranging from 10 nM to 50 μM for 18 h (optimized). […] Cell scavenging for 6e and 6j at 50 μM was 84.74% and 89.87%, respectively, and for 6n at 30 μM it was 75.43%. Corresponding cell viability was 15.25%, 10.13% and, 24.56%, respectively. Fluorescence signal became visible inside cells at 12 μM, 12 μM, and 20 μM concentrations for 6e, 6j, and 6n, respectively (SM, Figs. S31, S34, S37). […] Scavenging activity for 6e, 6j, and 6n was 61.1%, 18.23%, and 30.1%, respectively at 30 μM concentration (Fig. 5D–F). Corresponding cell viability was 38.82%, 81.76%, and 69.86%, respectively. The IC50 value of all the compounds was at the micromolar (μM) level which is shown in the Supplemental Material (Table S9 and S10).

In data set [2] the test system is HeLa cells. Description: MTS cell viability assay in HeLa. The following applies: 10 nM to 50 μM, 18 h. The data set is classed as cell-based. As to the method:
We investigated the effect of nine cATC derivatives (6b/6d/6e/6f/6i/6j/6k/6l/6n) on cell viability in cancer cell-line HeLa and transformed normal cell-line HEK293. We treated cells with the varying concentrations of the compounds ranging from 10 nM to 50 μM for 18 h (optimized).
MTS assay (CellTiter 96® AQueous One Solution Cell Proliferation Assay (Promega, USA) was used to determine the cell viability. HeLa and HEK293 cells (20,000 cells in each well) were plated in 96 well plate and treated with 6e, 6j, and 6n varying concentrations of the compounds ranging from 10 nM to 50 μM for 18 h. The assay was carried out according to the manufacturer’s instructions. Finally, the plate was read in Varioskan™ LUX multimode microplate reader (Thermo Fisher Scientific) at 490 nm.
Cell scavenging activity was calculated using the following formula:
OD(490nm) (control) – OD(490nm) (Test)/OD(490nm) (control) × 100%
Cell Viability of the cell was calculated using the following formula: […]

A further data set has as its system ct-DNA duplex. Nature of the data set: Circular dichroism of ct-DNA with cATC derivatives. The data set is classed as binding. The following applies: increasing concentration of cATC derivatives. The source says: Further, we examined the effect of cATC derivatives (6a/6e/6j/6n) on the ct-DNA duplex structure by circular dichroism (CD) studies. We recorded the CD spectra of ct-DNA with the increasing concentration of cATC derivatives (SM, Fig. S24). […] Next, we examined the binding site of cATC derivative (ligand) at the DNA duplex structure by using AutoDock-Vina, a well-reported computational docking program. We performed docking of cATC derivatives (6a/6d/6k) crystal structure (ligand) with dodecamer DNA duplex crystal structure (PDB ID-1BNA) as the receptor. Our docking results strongly support the non-covalent interaction of cATC derivatives (6a/6d/6k) at the DNA-minor groove with the binding affinity ~7.0 Kcal/mole, mostly hydrophobic interactions (SM, Figs. S25–7, Table S8). […] Overall, cATC derivatives non-covalently bind with DNA duplex through the non-intercalative mode without affecting the native duplex structure. Next, we examined the DNA binding affinity of cATC derivatives (6e/6j/6n) by gel-electrophoresis. The different concentrations of human genomic DNA were treated with EtBr (control) and cATC derivatives (6e/6j/6n) and ran on 1% agarose gel (SM, Fig. S28A–D). […] Further, the Microscale thermophoresis (MST) technique was used to calculate the binding affinities of cATC derivatives (6e/6j/6n) (20 µM) with varying concentrations of human genomic DNA (40 fM to 75 pM).

Some results are limits rather than exact numbers.

What is called melting point is the temperature, or range, at which the solid turns liquid. `C#CCN1[c+]2cccccc2N(CCc2ccccc2)C(C(=O)[O-])C1c1ccccc1` (stereo not drawn) [Compound 6i] yielded a melting point of 122 to 125 °C. Also, the IC50 in the data set with HeLa cells [1] was > 50 µM. The “effect on HeLa cell proliferation” value in the data set with HeLa cells [2] was “no or minimal effect”.
Molecule `CCCCCCCCN1[c+]2cccccc2N(CCc2ccccc2)C(C(=O)[O-])C1c1ccc(F)cc1` (stereo not drawn) [Compound 6k, N-octyl-N-phenylethyl 4-fluorophenyl troponyl dihydrapyrazinium carboxylate] yielded a melting point of 123 to 125 °C.
As for `O=C([O-])C1C(c2ccc([N+](=O)[O-])cc2)N(Cc2ccccc2)[c+]2cccccc2N1CCc1ccccc1` (stereo not drawn) [Compound 6d, N-Benzyl-N-phenylethyl 4-nitrophenyl troponyl dihydrapyrazine carboxylic acid], the IC50 in the data set with HeLa cells [1] was > 50 µM. For the same molecule, the “effect on HeLa cell proliferation” value with HeLa cells [2] was “no or minimal effect”.
On the same counts, the results for `O=C([O-])C1C(c2ccc(O)cc2)N(C2CCCCC2)[c+]2cccccc2N1CCc1ccccc1` (stereo not drawn) [Compound 6l] are > 50 µM and “no or minimal effect”.
On the same counts, the results for `N#Cc1ccc(C2C(C(=O)[O-])N(CCc3ccccc3)c3ccccc[c+]3N2Cc2ccccc2)cc1` (stereo not drawn) [Compound 6f] are > 50 µM and “no or minimal effect”.
For `O=C([O-])C1C(c2ccccc2)N(Cc2ccccc2)[c+]2cccccc2N1CCc1ccccc1` (stereo not drawn) [Compound 6a, N-benzyl-N-phenylethyl phenyl troponyl dihydropyrazinium carboxylate], the melting point fell in the range of 135 to 140 °C. The “effect on B-type duplex CD spectrum of ct-DNA” value in the data set on ct-DNA duplex is recorded as “almost remained unchanged”.
With `O=C([O-])C1C(C=Cc2ccccc2)N(Cc2ccccc2)[c+]2cccccc2N1CCc1ccccc1` (stereo not drawn) [Compound 6n], the melting point is 118 to 120 °C.
For `COc1cc(OC)cc(C2C(C(=O)[O-])N(CCc3ccccc3)c3ccccc[c+]3N2Cc2ccccc2)c1` (stereo not drawn) [Compound 6b], the IC50 in the data set on HeLa cells [1] was > 50 µM. The “effect on HeLa cell proliferation” value in the data set with HeLa cells [2] is “no or minimal effect”.
